Results: patent US20040121947A1, “Compounds which inhibit beta-secretase activity and methods of use thereof” (Oklahoma Medical Research Foundation, priority 2000, published 2004)
Where two headings read alike, the source gives them in different places. *1 amine or outer side, *2 acyl side, *3 side chain or, on linkers, in order; H or OH if unused. Where a SMILES comes first, the peptide text is derived from it. [ ]: non-standard residue; d: D form. LeuΨ(S-CHOHCH2)Ala = CC(C)C[C@H](N[*:1])[C@@H](O)C[C@@H](C)C(=O)[*:2]

Assays:
memapsin 1 = biological target: T1, memapsin 1 (Homo sapiens, UniProt Q9Y5Z0); experiment: Inhibition of memapsin 1 proteolytic activity, fluorogenic substrate FS-2; assay type: biochemical; details: for Ki: Table 9, read-out: Ki apparent Mep1; for % Inhibition Mep1: enzyme concentration equals the compound concentration
T1 construct: pET-11 vector-derived residues 1-14 of promemapsin 1-T1 (N, cleaved yes); made in house; host or cells: E. coli
T1 sequence (Q9Y5Z0 63-466 limits assumed): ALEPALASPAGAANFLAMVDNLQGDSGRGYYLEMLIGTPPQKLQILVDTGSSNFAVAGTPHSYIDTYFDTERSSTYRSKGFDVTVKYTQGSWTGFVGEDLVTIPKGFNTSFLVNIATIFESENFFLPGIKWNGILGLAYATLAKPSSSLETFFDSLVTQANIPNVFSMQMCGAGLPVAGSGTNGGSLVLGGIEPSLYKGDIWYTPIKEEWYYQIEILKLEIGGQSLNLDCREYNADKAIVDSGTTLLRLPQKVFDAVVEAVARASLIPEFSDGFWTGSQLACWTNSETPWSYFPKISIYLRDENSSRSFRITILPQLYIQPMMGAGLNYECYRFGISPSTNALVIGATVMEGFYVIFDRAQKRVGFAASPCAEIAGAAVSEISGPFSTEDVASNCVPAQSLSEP
Description: Vi/Vo depicts the ratio of initial cleavage velocities of the substrate FS-2 (Ermolieff, et al., Biochemistry […]:12450-12456 (2000)) by memapsin 1 or memapsin 2 in the absence (Vo) or presence (Vi) of a compound of the invention. […] The Vi/Vo values depicted in Table 1 were determined at conditions under which the enzyme and inhibitor concentrations were equal (e.g., about 80 nM, 100 nM).
The relationship of Ki (independent of substrate concentration) to Kiapp is a function of substrate concentration in the assay and the Km for cleavage of the substrate by either memapsin 1 or memapsin 2 by the relationship:
An aliquot of the inhibitor of known concentration in DMSO was diluted into 1.8 ml 0.1 M NaOAc, pH 4.0. DMSO and added to a final concentration of 10% (v/v), and memapsin 2 (final concentration of 80 nM), followed by a 20 minute equilibration at 37° C. Compounds were evaluated for the ability to inhibit memapsin 1 and memapsin 2 at concentrations between about 10 nM and about 10 μm of inhibitor.
The relationship of Ki (independent of substrate concentration) to Kiapp is a function of substrate concentration in the assay and the Km for cleavage of the substrate by either memapsin 1 or memapsin 2 by the relationship: […]

memapsin 2 = biological target: T2, memapsin 2 (Homo sapiens, UniProt P56817); experiment: Inhibition of memapsin 2 proteolytic activity, fluorogenic substrate FS-2; assay type: biochemical; details: for % Inhibition Mep2: enzyme concentration equals the compound concentration; for % Inh (M1/M2): ratio of % inhibition memapsin 1 / memapsin 2, 1 or less = greater inhibition of memapsin 2; for Vi/Vo: ratio of initial cleavage velocities of FS-2 with/without compound, enzyme and inhibitor concentrations equal (e.g., about 80 nM, 100 nM)
T2 construct: pET-11 vector-derived residues 1-15 of promemapsin 2-T1 (N, cleaved yes); made in house; host or cells: E. coli
Summary of the method: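 Inhibitors tested at about 10 nM to 10 μM in pH 4.0 0.1 M sodium acetate containing 10% (v/v) DMSO, after 20 min preincubation at 37 °C with 80 nM self-activated memapsin 2. Substrate-independent Ki derived from apparent Ki via Km and substrate level.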

[1] = Table 9, read-out: Ki apparent Mep2
[2] = memapsin 2, apparent Ki in presence of substrate FS-2, read-out: Ki app
[3] = memapsin 2, independent of substrate, converted from Ki apparent, read-out: Ki

T2 sequence (P56817 41-454 limits assumed): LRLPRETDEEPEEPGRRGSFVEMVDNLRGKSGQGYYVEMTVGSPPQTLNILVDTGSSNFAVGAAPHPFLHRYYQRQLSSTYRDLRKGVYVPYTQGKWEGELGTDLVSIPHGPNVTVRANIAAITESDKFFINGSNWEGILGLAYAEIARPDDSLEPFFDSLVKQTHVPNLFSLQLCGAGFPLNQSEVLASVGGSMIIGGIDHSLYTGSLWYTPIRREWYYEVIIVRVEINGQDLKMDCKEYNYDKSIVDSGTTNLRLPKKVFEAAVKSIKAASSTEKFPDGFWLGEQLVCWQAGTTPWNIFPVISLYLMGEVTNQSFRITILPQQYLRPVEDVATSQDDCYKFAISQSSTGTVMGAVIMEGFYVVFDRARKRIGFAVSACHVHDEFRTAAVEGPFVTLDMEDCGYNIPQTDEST

Row | Structure (SMILES) | Ki (memapsin 1) | Ki (memapsin 2; [1]) | Ki (memapsin 2; [2]) | Ki (memapsin 2; [3]) | % Inhibition Mep1 (memapsin 1) | % Inhibition Mep2 (memapsin 2) | % Inh (M1/M2) (memapsin 2) | Vi/Vo (memapsin 2) | % Inhibition Mep1 (memapsin 1; listed as 78) | % Inhibition Mep2 (memapsin 2; listed as 78) | % Inh (M1/M2) (memapsin 2; listed as 78) | Ki (memapsin 2; Ki, [I] < 100, memapsin 2, [I] < 100 (nM)) | Ki (memapsin 2; memapsin 2, read-out: Ki)
1 | CSCC[C@H](NC(=O)[C@@H](NC(=O)OC(C)(C)C)C(C)C)C(=O)N[C@@H](CC(C)C)[C@@H](O)C[C@@H](C)C(=O)N[C@H](C(=O)NCc1ccccc1)C(C)C [MMI-017] | 1.2 nM | 3.9 nM | 3.9 nM | 2.4 nM | – | – | – | – | – | – | – | – | –
2 | CC(C)C[C@H](NC(=O)[C@H](CCS(C)(=O)=O)NC(=O)[C@@H](NC(=O)OC(C)(C)C)C(C)C)[C@@H](O)C[C@@H](C)C(=O)N[C@@H](C(=O)NCc1ccccc1)[C@@H](C)O [MMI-073] | – | – | – | – | 38% | 52% | 0.73 | 0.48 | – | – | – | – | –
3 | CSCC[C@H](NC(=O)[C@@H](NC(=O)OC(C)(C)C)C(C)C)C(=O)N[C@@H](CC(C)C)[C@@H](O)C[C@@H](CO)C(=O)N[C@H](C(=O)NCc1ccccc1)C(C)C [MMI-078] | – | – | – | – | – | – | – | 0.63 | 28% | 37% | 0.76 | – | –
4 | Cc1cc(C)n(COC(=O)N[C@@H](CCS(C)(=O)=O)C(=O)N[C@@H](CC(C)C)[C@@H](O)C[C@@H](C)C(=O)N[C@H](C(=O)NCc2ccccc2)C(C)C)n1 [MMI-139] | – | – | – | – | 0% | 50% | 0 | 0.5 | – | – | – | – | –
5 | CSCC[C@H](NC(=O)OCCn1nc(C)cc1C)C(=O)N[C@@H](CC(C)C)[C@@H](O)C[C@@H](C)C(=O)N[C@@H](CC(C)C)C(=O)NCC(C)C [MMI-176] | – | – | 111 nM | 69.1 nM | 0% | 47% | 0 | 1 | – | – | – | – | –
6 | CSCC[C@H](NC(=O)OCCn1nc(C(C)C)cc1C(C)C)C(=O)N[C@@H](CC(C)C)[C@@H](O)C[C@@H](C)C(=O)N[C@H](C(=O)NCC(C)C)C(C)C [MMI-180] | – | – | – | – | 0% | 26% | 0 | 0.74 | – | – | – | – | –
7 | CSCC[C@H](NC(=O)OCn1nc(C)cc1C)C(=O)N[C@@H](CC(C)C)[C@@H](O)C[C@]1(C)CCN([C@@H](CC(C)C)C(=O)NCC(C)C)C1=O [MMI-181] | – | – | 393 nM | 246 nM | 9% | 47% | 0.19 | 0.53 | – | – | – | – | –
8 | CCCCNC(=O)[C@H](C(C)C)N1CC[C@@](C)(C[C@H](O)[C@H](CC(C)C)NC(=O)[C@H](CCSC)NC(=O)OCn2nc(C)cc2C)C1=O [MMI-182] | – | – | 447 nM | 280 nM | 0% | 34% | 0 | 0.66 | – | – | – | 72.7 nM | –
9 | CSCC[C@H](NC(=O)O[C@H]1CCOC1)C(=O)N[C@@H](CC(C)C)[C@@H](O)C[C@@H](C)C(=O)N[C@@H](CC(C)C)C(=O)NC(C)C [MMI-227] | – | – | 721 nM | 452 nM | – | – | – | – | – | – | – | – | –
10 | COCC[C@H](NC(=O)C(Cn1nc(C)cc1C)C(C)C)C(=O)N[C@@H](CC(C)C)[C@@H](O)C[C@@H](C)C(=O)N[C@H](C(=O)NCC(C)C)C(C)C (stereo partly shown) [MMI-228] | – | – | 176 nM | 110 nM | – | – | – | – | – | – | – | – | –
11 | CC(C)C[C@H](NC(=O)[C@H](CC(N)=O)NC(=O)[C@@H](N)C(C)C)[C@@H](O)C[C@@H](C)C(=O)N[C@@H](C)C(=O)N[C@@H](CCC(=O)O)C(=O)O [OM01-1] (H-VN[LeuΨ(S-CHOHCH2)Ala]AE-OH) | – | – | – | – | – | – | – | – | – | – | – | – | 126 nM

More lines, in order of falling Ki (memapsin 2; [2]), values ahead:

Row | Ki (memapsin 1) | Ki (memapsin 2; [1]) | Ki (memapsin 2; [2]) | Ki (memapsin 2; [3]) | % Inhibition Mep1 (memapsin 1) | % Inhibition Mep2 (memapsin 2) | % Inh (M1/M2) (memapsin 2) | Vi/Vo (memapsin 2) | % Inhibition Mep1 (memapsin 1; listed as 78) | % Inhibition Mep2 (memapsin 2; listed as 78) | % Inh (M1/M2) (memapsin 2; listed as 78) | Ki (memapsin 2; Ki, [I] < 100, memapsin 2, [I] < 100 (nM)) | Structure (SMILES) | Ki (memapsin 2; memapsin 2, read-out: Ki)
12 | – | – | 107 nM | 67.1 nM | 61% | 47% | 1.30 | 0.46 | – | – | – | – | CSCC[C@H](NC(=O)[C@@H](NC(=O)OC(C)(C)C)C(C)C)C(=O)N[C@@H](CC(C)C)[C@@H](O)C[C@@H](CO)C(=O)N[C@H](C(=O)NCc1ccccc1)C(C)C [MMI-132] | –
13 | – | – | 63.9 nM | 40 nM | 8% | 45% | 0.18 | 0.55 | – | – | – | – | CSCC[C@H](NC(=O)OCn1nc(C)cc1C)C(=O)N[C@@H](CC(C)C)[C@@H](O)C[C@@H](C)C(=O)N[C@@H](CC(C)C)C(=O)NC(CF)CF [MMI-171] | –
14 | – | – | 49 nM | 30.6 nM | 85% | 56% | 1.52 | 0.29 | – | – | – | – | CSCC[C@H](NC(=O)[C@@H](NC(=O)OC(C)(C)C)C(C)C)C(=O)N[C@@H](CC(C)C)[C@@H](O)C[C@@H](C)C(=O)N[C@@H](CC(C)C)C(=O)NCc1ccco1 [MMI-116] | –
15 | – | – | 36.6 nM | 22.8 nM | 8% | 44% | 0.18 | 0.56 | – | – | – | – | CCCCNC(=O)[C@@H](NC(=O)[C@H](C)C[C@H](O)[C@H](CC(C)C)NC(=O)[C@H](CCSC)NC(=O)OCn1nc(C)cc1C)C(C)C [MMI-167] | –
16 | 351 nM | 28.8 nM | 28.8 nM | 18 nM | – | – | – | – | – | – | – | – | CSCC[C@H](NC(=O)C(C)Cn1nc(C)cc1C)C(=O)N[C@@H](CC(C)C)[C@@H](O)C[C@@H](C)C(=O)N[C@H](C(=O)NCC(C)C)C(C)C (stereo partly shown) [MMI-196] | –
17 | 1030 nM | 27.4 nM | 27.4 nM | 17.1 nM | – | – | – | – | – | – | – | – | CSCC[C@H](NC(=O)C(Cn1nc(C)cc1C)C(C)C)C(=O)N[C@@H](CC(C)C)[C@@H](O)C[C@@H](C)C(=O)N[C@H](C(=O)NCC(C)C)C(C)C (stereo partly shown) [MMI-204] | –
18 | 44.7 nM | 15.9 nM | 16 nM | 9.97 nM | – | – | – | – | – | – | – | – | CC(C)C[C@H](NC(=O)[C@H](CS(C)(=O)=O)NC(=O)[C@@H](NC(=O)OC(C)(C)C)C(C)C)[C@@H](O)C[C@@H](C)C(=O)N[C@H](C(=O)NCc1ccccc1)C(C)C [MMI-026] | –
19 | – | – | 3.48 nM | 2.18 nM | 98% | 81% | 1.21 | – | – | – | – | – | CSCC[C@H](NC(=O)[C@H](CC(C)C)NC(=O)OC(C)(C)C)C(=O)N[C@@H](CC(C)C)[C@@H](O)C[C@@H](C)C(=O)N[C@H](C(=O)NCC(C)C)C(C)C [MMI-134] | –
20 | – | – | 3.03 nM | 1.89 nM | 32% | 68% | 0.47 | 0.32 | – | – | – | – | CSCC[C@H](NC(=O)OCn1nc(C)cc1C)C(=O)N[C@@H](CC(C)C)[C@@H](O)C[C@@H](C)C(=O)N[C@H](C(=O)NCC(C)C)C(C)C [MMI-156] | –
